Measured values reported in US20080051413A1, “Nitrophenylpiperazine derivative of xanthine which relaxes tracheal airway and increases respiratory performance” (KAOHSIUNG MEDICAL UNIVERSITY, priority 2006, published 2008).

What was measured:
[1] = test system: cultured guinea pig tracheal smooth muscle cells; experiment: Expression of PKA and PKG (Western blot); format: cell-based
Protocol: Cell Culture of Tracheal Smooth Muscle: Guinea pigs (350-450 g) were injected i.p. with a lethal dose of pentobarbital. The tracheas were excised and cut longitudinally through the cartilage. Using a dissecting microscope, TSM strips were dissected from the surrounding parentchyma. The epithelium was removed from the luminal surface, and bands of TSM were gently separated from the underlying connective tissue. Then TSM strips were chopped into small sections (1 mm^3) and incubated in Hanks' balanced salt solution (138 mM NaCl, 4 mM NaHCO3, 5 mM KCl, 0.3 mM KH2PO4, 0.3 mM Na2HPO4, and 1.0 mM glucose) with 0.05% elastase type IV and 0.2% collagenase type IV (Invitrogen, Carlsbad, Calif.) for 30 min at 37_ with gentle shaking. The solution of dissociated smooth muscle cells was centrifuged (6 min at 500 g), and the pellet was resuspended in 1:1 Dulbecco's modified Eagle's medium/Ham's F-12 medium supplemented with 10% fetal bovine serum, 0.244% NaHCO3, and 1% penicillin/streptomycin. Cells were cultured in 25-cm^2 flasks at 37_ in humidified air containing 5% CO2. Confluent cells were detached with 0.25% trypsin-0.02% EDTA at 37_and then subcultured to establish secondary cultures. Cultures were maintained for no more than four passages. They were identified as smooth muscle cells by the typical hill-and-valley appearance, and cellular homogeneity was further confirmed by the presence of smooth muscle specific _-myosin and _-actin immunoreactivity. Indirect immunofluorescence staining for a variety of antigens was carried out by first plating the cells on chamber slides, fixing the cells in 3.7% formaldehyde-phosphate-buffered saline for 10 min, and permeabilizing the cells with phosphate-buffered saline and 0.1% Triton X-100. Cells were then stained with either a mouse monoclonal antibody directed against the amino-terminal 10 amino acids of _-smooth muscle actin or _-myosin (Roche Diagnostics, Indianapolis, Ind.). All cells were stained with fluorescein-labeled goat anti-mouse IgG antibody (Roche Diagnostics).
Expression of PKA and PKG: The expression of PKA and PKG was determined by Western blot as previously described by Wu et al. and Murthy et al. (Wu B N, Lin R J, Lo Y C, Shen K P, Wang C C, Lin Y T, and Chen I J (2004) KMUP-1, a xanthine derivatives, induces relaxation of guinea-pig isolated trachea: the role of the epithelium, cyclic nucleotides and K^+ channels. Br J Pharmacol 142:1105-1114; Murthy K S, Zhou H, and Makhlouf G M (2002) PKA-dependent activation of PDE3A and PDE4 and inhibition of adenylyl cyclase V/VI in smooth muscle. Am J Physiol 282:C508-C517). Guinea pig TSMCs were incubated with KMUP-3 for 30 min. Each of the cell lysates, each containing 1 _g of cellular protein, was electrophoresed in 7.5% SDS-polyacrylamide gel electrophoresis and then transferred to polyvinylidene diflouride membrane (Millipore Corporation, Billerica, Mass.). The membrane was stained with Ponceau S to verify the integrity of the transferred proteins and to monitor the unbiased transfer of all protein samples. The membrane was then washed with 25 ml of TBS (100 mM NaCl, 0.1% and 10 mM Tris-HCl, pH 7.5) for 5 min at room temperature and incubated in 25 ml of blocking buffer (TBS plus 0.1% Tween 20 and 5% nonfat milk) overnight at 4_. In the measurement of protein, the membrane was incubated with appropriate PKARI or PKA1—1— primary antibody (diluted 1:250) in 2 ml of blocking buffer for 1 h at room temperature, washed three times for 5 min each with 15 ml of Tris-buffered saline/Tween 20 (TBS plus 0.1% Tween 20), incubated with horseradish peroxidase-conjugated secondary antibody (1:10,000) in 15 ml of blocking buffer with gentle agitation for 1 h at room temperature, and finally washed three times for 5 min each time with 15 ml of Tris-buffered saline/Tween 20. The membrane was then subjected to enhanced chemiluminescence (GE Healthcare) for the detection of the specific antigen.

[2] = test system: TNF-_-induced bronchoconstriction; experiment: TNF-_-induced bronchoconstriction, intratracheal instillation; format: in vivo, guinea pig
Protocol: Animals: Male Dunkin Harley guinea pigs (350-450 g) were provide by the National Laboratory Animal Breeding and Research Center (Taipei, Taiwan) and housed under conditions of constant temperature and controlled illumination. Food and water were available and libitum. The study was approved by the Animal Care and Use Committee of the Kaohsiung Medical University.
Pulmonary Function: Guinea pegs (350-450 g) were anesthetized with pentobarbital (40 mg/kg i.p.) and maintained with further i.v. doses of 2 to 5 mg/kg when required according to methods previously described (Wu B N, Lin R J, Lo Y C, Shen K P, Wang C C, Lin Y T, and Chen I J (2004) KMUP-1, a xanthine derivative, induces relaxation of guinea-pig isolated trachea: the role of the epithelium, cyclic nucleotides and K^+ channels, Br J Pharmacol 142:1105-1114). The animal was tethered in a supine position, and the trachea was cannulated below the larynx with a short tracheal cannula via a tracheotomy. Tracheal pressure was measured by a catheter connected to the side arm of the tracheal cannula. The carotid artery and jugular vein were cannulated to monitor blood pressure and heart rate and for drug administration, respectively. Throughout the experiment, the body temperature of the guinea pig was maintained at 37_. Measurements of pulmonary cardiac function were carried out as previously described (Hsu T H, Lai Y L, and Kou Y R (1998) Acetylcholine and tachykinin receptor antagonists attenuate wood smoke-induced bronchoconstriction in Guinea pigs. Eur J Pharmacol 360:175-183). Total lung resistance (RL) and dynamic lung compliance (Cdyn) were measured on a breath-by-breath basis using a computer equipped with an A/D interface (DAS 1600; Buxco Electronics, Inc., Wilmington, N.C.) and software (version 1.5.7; Buxco Electronics, Inc.). Results obtained from the computer analysis were checked for accuracy by comparison with those calculated manually.
Animals were allowed to stabilize for 10 min following surgical manipulations before the test agent was administered. […]

[3] = 0.5, 1.0, 2.0 mg/kg intratracheal, 15 min prior to TNF-_ (0.01 mg/kg)

Cn1c(=O)c2c(ncn2CCN2CCN(c3ccc([N+](=O)[O-])cc3)CC2)n(C)c1=O [KMUP-3]
expression of PKA1—1— (FIG. 7(B)) ([1]; 1 _M, 30 min): increased the expression of PKA1—1— | expression of immunoreactive PKARI protein (FIG. 7(A)) ([1]; 1 _M, 30 min): increased the expression of PKARI | PKG protein after ODQ pretreatment ([1]; ODQ (10_M) 30 min prior to compound (1 _M)): significantly reduced | PKA protein expression after ODQ pretreatment ([1]; ODQ (10 _M) 30 min prior to compound, unpublished data): did not significantly affect | expression of PKARI after SQ 22536 pretreatment ([1]; SQ 22536 (100 _M) 30 min prior to compound (1 _M)): attenuated | effect on Cdyn in TNF-_-induced bronchocontraction (FIG. 2) [2, 3]: increasing Cdyn | effect on RL in TNF-_-induced bronchocontraction (FIG. 2) [2, 3]: decreasing RL | Blood pressure and heart rate ([2]; intratracheal instillation, during recording of lung function): not significantly changed
